Common to all, as to type: cell-based, human
Experiment [1] deals with peripheral blood mononuclear cells (PBMC) with allogeneic PBMC or RPMI1788 stimulator cells. Nature of the experiment: Mixed lymphocyte reaction (MLR) test, [3H]-thymidine incorporation. Particulars: Table 1; 5 days incubation + 16 h thymidine. From the text:
(§1) Various models may be used for testing an immunosuppressive effect. In vivo, for example, different transplantation models are available. They are strongly influenced by different immunogenicities, depending on the donor and recipient species used and depending on the nature of the transplanted organ. The survival time of transplanted organs can thus be used to measure the suppression of the immune response. In vitro, the most used models are lymphocyte activation tests. Usually activation is measured via lymphocyte proliferation. Inhibition of proliferation thus always means immunosuppression under the experimental conditions applied. There exist different stimuli for lymphocyte activation: • a) co-culture of lymphocytes of […] (mixed lymphocyte reaction, hereinafter referred as MLR) in a so-called mixed lymphocyte culture test: lymphocytes expressing different minor and major antigens of the HLA-DR type (=alloantigens) activate each other non-specifically. • b) a CD3 assay here there is an activation of the T-lymphocytes via an exogenously added antibody (OKT3).
(§2) All reagents were dissolved in 0.5 ml dimethylsulfoxide (hereinafter referred as DMSO) and further diluted in culture medium before use for the following in vitro experiments. The commercially available culture medium consisted of RPMI-1640+10% foetal calf serum (FCS).
Peripheral blood mononuclear cells (hereinafter referred as PBMC) were isolated from heparinized peripheral blood by density gradient centrifugation over Lymphoprep (Nycomed, Maorstua, Norway). Allogeneic PBMC or Eppstein-Barr Virus-transformed human B cells [commercially available under the trade name RPM11788 (ATCC name CCL156)] which strongly express B7-1 and B7-2 antigens were used as stimulator cells after irradiation with 30 Gy. MLR was performed in triplicate wells. After 5 days incubation at 37° C., 1 μCi [^3 H]-thymidine was added to each cup. After a further 16 hours incubation, cells were harvested and counted in a β-counter. Inhibition of proliferation by a compound (drug) described in some of the previous examples was counted using the formula: [formula] wherein cpm is the thymidine count per minute. Assays for CD3 and CD 28
For orientation: Incorporation of labelled thymidine or its analogues reports DNA synthesis.

The subject of experiment [2] is highly purified T cells stimulated by immobilized anti-CD3 mAb. Nature of the experiment: CD3 assay: T-cell proliferation stimulated by anti-CD3 mAb + PMA (BrdU). As to conditions: Table 1; anti-CD3 mAb + PMA 0.5 ng/ml, 48 h; read-out: CD 3 IC50.
From the text: as §1, §2
(§3) T cells were purified by removing non-T cells. Briefly, monocytes were removed by cold agglutination. The resulting lymphoid cells were further purified by a cell enrichment immunocolumn [Cellect Human T commercially available from Biotex, Edmonton, Alberta, Canada)] by a process of negative selection.
(§4) Highly purified T cells (10^6/ml) were stimulated by immobilized anti-CD3 or anti-CD28 monoclonal antibodies (hereinafter referred as mAb) in the presence of PMA. Anti-CD3 mAb (available from CLB, Amsterdam, Netherlands) were fixed on the 96-microwell plates by incubating the wells with 50 μl of mAb solution (1/800 dilution in culture medium). For anti-CD28 mAb (available from CLB, Amsterdam, Netherlands) 50 μl (1/650 dilution in culture medium) was added directly to the wells. Further, a 20 μl phorbol myristate acetate (hereinafter referred as PMA (commercially available from Sigma, St. Louis, Mo., USA) solution (final concentration: 0.5 ng/ml) was added. Subsequently, 20 μl of a compound described in some of the previous examples were added by serial dilution in triplicate wells. Finally 100 μl of the T-cell suspension (10^6/ml) was added. After 48-hour incubation at 37° C. in 5% CO2 20 μl of a bromo-deuridine (hereinafter referred as BrdU) 100 μM solution (commercially available as Cell Proliferation Elisa from Boehringer-Mannheim Belgium) was added to each well. After a further overnight incubation, T-cell proliferation was measured using a colorimetric immunoassay for qualification of cell proliferation based on the incorporation of BrdU during DNA synthesis. Optical density (hereinafter referred as OD) was measured by a Behring EL311 plate reader at 450 nm (reference wavelength: 690 nm). Inhibition of proliferation by a compound (drug) described in some of the previous examples was counted using the formula: [formula]

In experiment [3] the test system is highly purified T cells stimulated by anti-CD28 mAb. As to the kind of experiment: CD28 assay: T-cell proliferation stimulated by anti-CD28 mAb + PMA (BrdU). Particulars: Table 1; anti-CD28 mAb + PMA 0.5 ng/ml, 48 h.
From the text: as §1, §2, §3, §4

Broadly, the IC50 is the concentration needed to halve the response being measured. As to `Cn1c(=O)c2nc(/C=C/C=Cc3ccccc3)cnc2n(C)c1=O` [Example 9, 1,3-dimethyl-6-[(E)-4-(phenyl)butadienyl]lumazine], the results for the IC50 in experiment [1], in experiment [2] and in experiment [3] were 75 µM, 140 µM and 140 µM, respectively.
Take `CCCCN(CCCC)c1nc2c(nc1C#N)c(=O)n(C)c(=O)n2C` [Example 56, 6-cyano-7-dibutylamino-1,3-dimethyl-lumazine]: the IC50 was 12 µM in experiment [1], 152 µM in experiment [2] and 116 µM in experiment [3].
Taken in the same sequence, the figures for `Cn1c(=O)c2nc(/C=C/c3ccncc3)cnc2n(C)c1=O` [Example 7, 1,3-dimethyl-6-[(E)-2-(pyrid-4-yl)vinyl]lumazine] were 20 µM, 150 µM and 150 µM.
With `Cn1c(=O)c2nc(C=C[N+](=O)[O-])cnc2n(C)c1=O` [Example 18, 1,3-dimethyl-6-[(2-nitro)ethenyl]lumazine], the half-maximal inhibitory concentration (IC50) in experiment [1] turned out to be 12 µM; in experiment [2], 0.8 µM; in experiment [3], 0.4 µM.
Taken in the same sequence, the figures for `CCOC(=O)c1nc2c(=O)n(C)c(=O)n(C)c2nc1SCC` [Example 65, 6-ethylcarboxylate-7-mercaptoethyl-1,3-dimethyl-lumazine] were 140 µM, 116 µM and 116 µM.
Consider `CCCn1c(=O)c2nc(-c3ccccc3)c(O)nc2n(CCC)c1=O` [Example 44, 7-hydroxy-6-phenyl-1,3-di-n-propyllumazine], for which the half-inhibitory concentration (IC50) came to 120 µM in experiment [1], 80 µM in experiment [2] and 70 µM in experiment [3].
On to `Cn1c(=O)c2ncc(C(Br)=Cc3ccccc3)nc2n(C)c1=O` [Example 28, 7-(1-bromo-2-phenyl)ethenyl-1,3-dimethyllumazine], for which the IC50 stood at 2.7 µM in experiment [1], 2.4 µM in experiment [2] and 2.7 µM in experiment [3].
Turning to `CCOC(=O)c1nc2c(=O)n(C)c(=O)n(C)c2nc1NNc1ccccc1` [Example 64, 6-ethylcarboxylate-7-phenylhydrazino-1,3-dimethyl-lumazine], the IC50 in experiment [1] is 20 µM; in experiment [2], 56 µM; in experiment [3], 12 µM.
Taken in the same sequence, the figures for `Cn1c(=O)c2nc(Cl)c(C#N)nc2n(C)c1=O` [Example 51, 6-chloro-7-cyano-1,3-dimethyl-lumazine] were 116 µM, 56 µM and 56 µM.
The corresponding values for `Cn1c(=O)c2nc(O)c(C=O)nc2n(C)c1=O` [Example 46, 6-hydroxy-7-formyl-1,3-dimethyl-lumazine] are 72 µM, 104 µM and 80 µM.
In the case of `Cn1c(=O)c2nc(C(O)C[N+](=O)[O-])cnc2n(C)c1=O` (stereo not drawn) [Example 17, 6-[(1-hydroxy-2-nitro)ethyl]-1,3-dimethyllumazine], the values for the IC50 in experiment [1], in experiment [2] and in experiment [3] were 90 µM, 25 µM and 15 µM, respectively.
Take `Cn1c(=O)c2ncc(/C=C/c3ccccc3)nc2n(C)c1=O` [Example 26, 1,3-dimethyl-7-(E)-styryllumazine]: the IC50 in experiment [1] came out at 50 µM; in experiment [2], 115 µM; in experiment [3] it was 115 µM.
As for `C=CCNc1nc2c(nc1C(=O)OCC)c(=O)n(C)c(=O)n2C` [Example 62, 6-ethylcarboxylate-7-(2-propenylamino)-1,3-dimethyl-lumazine], the concentration for half-maximal inhibition (IC50) came to 60 µM in experiment [1], 92 µM in experiment [2] and 56 µM in experiment [3].
Taken in the same sequence, the figures for `COC(=O)/C=C/c1cnc2c(=O)n(C)c(=O)n(C)c2n1` [Example 24, 7-[(E)-2-methoxycarbonylethenyl]-1,3-dimethyl-lumazine] were 15 µM, 12 µM and 12 µM.
Taken in the same sequence, the figures for `Cn1c(=O)c2ncc(/C=C/c3cccnc3)nc2n(C)c1=O` [Example 21, 1,3-dimethyl-7-[(E)-2-(pyrid-3-yl)vinyl]lumazine] were 20 µM, 100 µM and 60 µM.

The values above are taken from patent US6946465B2, “Immunosuppressive effects of pteridine derivatives” (4 AZA Bioscience NV, priority 1999, dated 2005).
